Test results taken from paper PMC6630832, “3-Vinylazetidin-2-Ones: Synthesis, Antiproliferative and Tubulin Destabilizing Activity in MCF-7 and MDA-MB-231 Breast Cancer Cells” (Pharmaceuticals, 2019).
Read-outs that look alike come from different tables or passages of the source.

How the values were obtained:
MCF-7 cells = assay: Lactate dehydrogenase (LDH) assay for cytotoxicity; format: cell-based; conditions: Homo sapiens, MCF7, 72 h, read-out: cell death (LDH assay)
Protocol: Cytotoxicity was determined using the CytoTox 96 non-radioactive cytotoxicity assay (Promega Corporation; 2800 Woods Hollow Road, Madison, WI, USA) following the manufacturer’s protocol. Briefly, MCF-7 cells were seeded in 96-well plates, incubated for 24 hr and then treated with test compounds (7d, 7h, 7i, 7q, 7r, 7u, 7t, 10d, 10f, 12) as described in the cell viability assay above. After 72 h, 20 μL of ‘lysis solution (10X)’ was added to control wells and the plate was incubated for a further 1 hr to ensure 100% death. 50 μL of supernatant was carefully removed from each well and transferred to a new 96-well plate. 50 μL of reconstituted ‘substrate mix’ was added and the plate was placed in the dark at room temperature for 30 min. After this period, 50 μL of ‘stop solution’ was added to each well and the absorbance was read at a wavelength of 490 nm using a Dynatech MR5000 plate reader. The percentage cell death at 10 μM was calculated.

SF-268 = assay: NCI60 screen (SRB), CNS Cancer; format: cell-based; conditions: Homo sapiens
MALME-3M = assay: NCI60 screen (SRB), Melanoma; format: cell-based; conditions: Homo sapiens
COLO 205 = assay: NCI60 screen (SRB), Colon Cancer; format: cell-based; conditions: Homo sapiens
HT29 = assay: NCI60 screen (SRB), Colon Cancer; format: cell-based; conditions: Homo sapiens, HT-29
SK-MEL-2 = assay: NCI60 screen (SRB), Melanoma; format: cell-based; conditions: Homo sapiens
SK-MEL-5 = assay: NCI60 screen (SRB), Melanoma; format: cell-based; conditions: Homo sapiens
OVCAR-5 = assay: NCI60 screen (SRB), Ovarian cancer; format: cell-based; conditions: Homo sapiens
MDA-MB-435 = assay: NCI60 screen (SRB), Melanoma; format: cell-based; conditions: Homo sapiens
SN12C = assay: NCI60 screen (SRB), Renal cancer; format: cell-based; conditions: Homo sapiens
SK-OV-3 = assay: NCI60 screen (SRB), Ovarian cancer; format: cell-based; conditions: Homo sapiens
SF295 = assay: NCI60 screen (SRB), CNS Cancer; format: cell-based; conditions: Homo sapiens, SF-295
UACC-257 = assay: NCI60 screen (SRB), Melanoma; format: cell-based; conditions: Homo sapiens
NCI/ADR-RES = assay: NCI60 screen (SRB), Ovarian cancer; format: cell-based; conditions: Homo sapiens
786-0 = assay: NCI60 screen (SRB), Renal cancer; format: cell-based; conditions: Homo sapiens
MDA-MB-231/ATCC = assay: NCI60 screen (SRB), Breast cancer; format: cell-based, human; conditions: for IC50: value from NCI (footnote b)
OVCAR-8 = assay: NCI60 screen (SRB), Ovarian cancer; format: cell-based; conditions: Homo sapiens
MOLT-4 = assay: NCI60 screen (SRB), Leukemia; format: cell-based; conditions: Homo sapiens
HL-60(TB) = assay: NCI60 screen (SRB), Leukemia; format: cell-based; conditions: Homo sapiens; NCI60 Leukemia cell line HL-60(TB)
RPMI-8226 = assay: NCI60 screen (SRB), Leukemia; format: cell-based; conditions: Homo sapiens
[1] = NCI60 CNS Cancer cell line SF-268, read-out: GI50
[2] = NCI60 Melanoma cell line MALME-3M, read-out: GI50
[3] = NCI60 Colon Cancer cell line COLO 205, read-out: GI50
[4] = NCI60 Colon Cancer cell line HT29, read-out: GI50
[5] = NCI60 Melanoma cell line SK-MEL-2, read-out: GI50
[6] = NCI60 Melanoma cell line SK-MEL-5, read-out: GI50
[7] = NCI60 Ovarian cancer cell line OVCAR-5, read-out: GI50
[8] = NCI60 Melanoma cell line MDA-MB-435, read-out: GI50
[9] = NCI60 Renal cancer cell line SN12C, read-out: GI50
[10] = NCI60 Ovarian cancer cell line SK-OV-3, read-out: GI50
[11] = NCI60 CNS Cancer cell line SF295, read-out: GI50
[12] = NCI60 Melanoma cell line UACC-257, read-out: GI50
[13] = NCI60 Ovarian cancer cell line NCI/ADR-RES, read-out: GI50
[14] = NCI60 Renal cancer cell line 786-0, read-out: GI50
[15] = Homo sapiens, NCI60 Breast cancer cell line MDA-MB-231/ATCC, read-out: GI50
[16] = NCI60 Ovarian cancer cell line OVCAR-8, read-out: GI50
[17] = NCI60 Leukemia cell line MOLT-4, read-out: GI50
[18] = NCI60 Leukemia cell line RPMI-8226, read-out: GI50

Structure (SMILES)	cytotoxicity at 10 µM (MCF-7 cells) [%]	GI50 (SF-268; SF-268) [nM]	GI50 (MALME-3M; Malme-3M) [nM]	GI50 (COLO 205; COLO 205) [nM]	GI50 (SF-268; [1]) [nM]	GI50 (MALME-3M; [2]) [nM]	GI50 (COLO 205; [3]) [nM]	GI50 (HT29; [4]) [nM]	GI50 (SK-MEL-2; [5]) [nM]	GI50 (SK-MEL-5; [6]) [nM]	GI50 (OVCAR-5; [7]) [nM]	GI50 (MDA-MB-435; [8]) [nM]	GI50 (SN12C; [9]) [nM]	GI50 (SK-OV-3; [10]) [nM]	GI50 (SF295; [11]) [nM]	GI50 (UACC-257; [12]) [nM]	GI50 (NCI/ADR-RES; [13]) [nM]	GI50 (786-0; [14]) [nM]	GI50 (MDA-MB-231/ATCC; [15]) [nM]	GI50 (HL-60(TB)) [nM]	also measured
COc1ccc(/C=C\c2cc(OC)c(OC)c(OC)c2)cc1O [CA-4, Combretastatin A-4, reference compound]	11.8	–	–	–	–	–	–	–	–	–	–	–	–	–	–	–	–	–	–	–	–
C=CC1C(=O)N(c2cc(OC)c(OC)c(OC)c2)C1c1ccc(OC)cc1 (centres unmarked) [Compound 7h, 4-(4-Methoxyphenyl)-1-(3,4,5-trimethoxyphenyl)-3-vinylazetidin-2-one]	2.4	47.6	73	20.6	–	–	–	–	–	–	–	–	–	–	–	–	–	–	–	–	GI50 (HT29): 33.7 nM; GI50 (SK-MEL-2; SK-MEL-2): 191 nM; GI50 (SK-MEL-5; SK-MEL-5): 19.4 nM; GI50 (OVCAR-5; OVCAR-5): 58.7 nM; GI50 (MDA-MB-435; MDA-MB-435): 22.6 nM; GI50 (SN12C; SN12C): 55.2 nM; GI50 (SK-OV-3; SK-OV-3): 28.5 nM; GI50 (SF295): 35.8 nM; GI50 (UACC-257; UACC-257): 42200 nM; GI50 (NCI/ADR-RES; NCI/ADR-RES): 27.2 nM; GI50 (786-0; 786-0): 33.9 nM; GI50 (MDA-MB-231/ATCC; Homo sapiens, MDA-MB-231): 31.7 nM; IC50 (MDA-MB-231/ATCC; Homo sapiens, MDA-MB-231, read-out: Antiproliferative Activity IC50, MDA-MB-231): 31 nM; IC50 (MDA-MB-231/ATCC; read-out: Antiproliferative Activity IC50, MDA-MB-231): 31.7 nM
C=CC1C(=O)N(c2cc(OC)c(OC)c(OC)c2)C1c1ccc(OC)c(O)c1 (centres unmarked) [Compound 7s, 4-[3-Hydroxy-4-methoxyphenyl]-1-(3,4,5-trimethoxyphenyl)-3-vinylazetidin-2-one]	16.1	–	–	–	< 10	28.3	32.1	429	31.4	< 10	45.3	< 10	< 10	10.5	271	> 100000	< 10	27.3	< 10	–	IC50 (MDA-MB-231/ATCC; Homo sapiens, MDA-MB-231, read-out: Antiproliferative Activity IC50): 10 nM
C=CC1C(=O)N(c2cc(OC)c(OC)c(OC)c2)C1c1ccc(OC)c(N)c1 (centres unmarked) [Compound 7t, 4-(3-Amino-4-methoxyphenyl)-1-(3,4,5-trimethoxyphenyl)-3-vinylazetidin-2-one]	25	54.6	> 100000	17.5	–	–	–	–	–	–	–	–	–	–	–	–	–	–	–	13.7	GI50 (HT29): 17.9 nM; GI50 (SK-MEL-2; SK-MEL-2): 65.6 nM; GI50 (OVCAR-8; OVCAR-8): 14.8 nM; GI50 (SK-MEL-5; SK-MEL-5): 14.6 nM; GI50 (OVCAR-5; OVCAR-5): 44.6 nM; GI50 (MDA-MB-435; MDA-MB-435): < 10 nM; GI50 (SK-OV-3; SK-OV-3): 45.7 nM; GI50 (MOLT-4; MOLT-4): 40 nM; GI50 (SF295): 21.3 nM; GI50 (UACC-257; UACC-257): > 100000 nM; GI50 (NCI/ADR-RES; NCI/ADR-RES): < 10 nM; GI50 (786-0; 786-0): 34.6 nM; GI50 (RPMI-8226; RPMI-8226): < 10 nM; GI50 (MDA-MB-231/ATCC; Homo sapiens, MDA-MB-231): 41.5 nM
C=CC1C(=O)N(c2cc(OC)c(OC)c(OC)c2)C1c1ccc(OC)c(OP(=O)(O)O)c1 (centres unmarked) [Compound 17b, 2-Methoxy-5-(1-(3,4,5-trimethoxyphenyl)-4-oxo-3-vinylazetidin-2-yl)phenyl dihydrogen phosphate]	–	–	–	–	88.4	54500	1910	2780	85.8	31.2	3570	21	146	97.7	29.1	> 100000	37	229	48.6	27.3	GI50 (OVCAR-8; [16]): 44.2 nM; GI50 (MOLT-4; [17]): 129 nM; GI50 (RPMI-8226; [18]): 80.2 nM; IC50 (MDA-MB-231/ATCC; Homo sapiens, MDA-MB-231, MDA-MB-231, read-out: Antiproliferative Activity IC50): 49 nM; IC50 (MDA-MB-231/ATCC; MDA-MB-231, read-out: Antiproliferative Activity IC50): 48.6 nM
CCC1C(=O)N(c2cc(OC)c(OC)c(OC)c2)C1c1ccc(OC)c(OP(=O)(O)O)c1 (centres unmarked) [Compound 17c, 5-(3-Ethyl-1-(3,4,5-trimethoxyphenyl)-4-oxoazetidin-2-yl)-2-methoxyphenyl dihydrogen phosphate]	–	–	–	–	43.3	71400	204	356	54.4	19	444	12.8	54.8	34.1	24.3	> 100000	19.1	44.5	31	28.8	GI50 (OVCAR-8; [16]): 32.7 nM; GI50 (MOLT-4; [17]): 47.7 nM; GI50 (RPMI-8226; [18]): 48.2 nM
